Common to all, as to assay: Steady-state kinetics, DNA- and RNA-dependent polymerase activity
Holding throughout (assay type): biochemical

Experiment [1] addresses SuperScript II reverse transcriptase (SSII, SS II RT), a modified M-MLV reverse transcriptase (Moloney murine leukemia virus isolate Shinnick, UniProt P03355). The procedure:
(§1) Thermotoga neapolitana (Tne) DNA polymerase mutated to eliminate 3′ to 5′ and 5′ to 3′ exonuclease activity was cloned, engineered and purified as described in U.S. Pat. No. 6,306,588. SuperScript II reverse transcriptase (SS II RT) was from Invitrogen Corporation, Carlsbad, Calif.
(§2) Steady-state kinetic measurements.
(§3) The catalytic rate constant kcat and the Michaelis constant KM were determined for both the DNA-dependent and RNA-dependent polymerase activities for the polypeptides of the invention and these parameters were compared to those of Tne DNA polymerase enzyme and […]™ II reverse transcriptase. […]

Experiment [2] addresses T1, Thermotoga neapolitana (Tne) DNA polymerase, mutated to eliminate 3′ to 5′ and 5′ to 3′ exonuclease activity (Thermotoga neapolitana, UniProt B9K7T2).
T1 construct: mutated to eliminate 3'-5' and 5'-3' exonuclease activity as in US 6,306,588 (recalled, unsure: D137A and D323A)
The procedure: as §1, §2, §3

The target in experiment [3] is T2, Bacillus caldolyticus EA1.3 (B.EA1) DNA polymerase, SEQ ID NO:20 ([Bacillus] caldolyticus, UniProt Q6X9S1).
T2 sequence (Q6X9S1 with tags, fused parts or gaps): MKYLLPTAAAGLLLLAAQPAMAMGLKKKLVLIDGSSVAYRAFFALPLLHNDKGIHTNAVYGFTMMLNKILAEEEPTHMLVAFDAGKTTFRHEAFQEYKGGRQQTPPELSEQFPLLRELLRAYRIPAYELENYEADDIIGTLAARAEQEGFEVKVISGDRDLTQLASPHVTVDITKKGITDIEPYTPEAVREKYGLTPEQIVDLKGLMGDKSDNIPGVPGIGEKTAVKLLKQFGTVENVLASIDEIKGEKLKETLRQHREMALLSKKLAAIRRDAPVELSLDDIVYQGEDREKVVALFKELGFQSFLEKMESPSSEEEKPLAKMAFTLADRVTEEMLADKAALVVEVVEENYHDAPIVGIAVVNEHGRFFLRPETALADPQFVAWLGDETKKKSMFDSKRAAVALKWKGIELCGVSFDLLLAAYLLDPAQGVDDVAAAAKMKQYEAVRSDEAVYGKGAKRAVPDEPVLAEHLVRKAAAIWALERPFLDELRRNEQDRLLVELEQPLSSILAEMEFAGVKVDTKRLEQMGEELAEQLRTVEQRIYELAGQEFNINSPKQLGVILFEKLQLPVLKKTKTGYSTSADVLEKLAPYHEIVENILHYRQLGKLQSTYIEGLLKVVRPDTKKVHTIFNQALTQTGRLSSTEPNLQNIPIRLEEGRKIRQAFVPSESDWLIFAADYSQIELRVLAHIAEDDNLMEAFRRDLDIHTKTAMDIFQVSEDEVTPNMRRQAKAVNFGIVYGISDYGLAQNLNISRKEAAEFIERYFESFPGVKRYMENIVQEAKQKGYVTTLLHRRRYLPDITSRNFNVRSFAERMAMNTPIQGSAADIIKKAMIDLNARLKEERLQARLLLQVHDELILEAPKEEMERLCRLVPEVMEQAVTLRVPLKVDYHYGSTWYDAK
The conditions noted are these: Table 40; dTTP; 55 °C. The procedure: Purification of CA2, B.EA1, Rt41A, Dth, Tok13B, Tok7B, and Rt69B DNA polymerase. E. coli cells (BL21SI, Invitrogen Corporation, Carlsbad, Calif.) bearing the plasmid pET26B with the gene for CA2, B.EA1, Rt41A, or Dth DNA polymerase were grown in 2.8-1 Fembach flasks in LB broth containing no salt and 50 μg/ml kanamycin at 37° C. After the culture reached an A590 of 1.2, expression of DNA polymerase was induced with 0.3 M NaCl for 3 hr. Cells were harvested by centrifugation and stored at −70° C. E. coli cells (BL21AI) bearing the plasmid pET14B with the gene for Tok13B, Tok7B, or RT69B DNA polymerase were grown in 2.8-1 Fembach flasks in LB broth containing 50 μg/ml ampicillin at 37° C. After the culture reached an A590 of 1.0, expression of DNA polymerase was induced by the addition of 0.2% arabinose for 3 hr. Cells were harvested by centrifugation and stored at −70° C.
as §2

[4] abbreviates: Table 34, RNA template, 2 mM MgCl2, 45 °C per footnote.
Where [5] appears, read: read-out: Km RNA (dTTP), Table 34, RNA template, 2 mM MgCl2, 45 °C per footnote.

T1 sequence (B9K7T2 entry or part of it, stated change not applied): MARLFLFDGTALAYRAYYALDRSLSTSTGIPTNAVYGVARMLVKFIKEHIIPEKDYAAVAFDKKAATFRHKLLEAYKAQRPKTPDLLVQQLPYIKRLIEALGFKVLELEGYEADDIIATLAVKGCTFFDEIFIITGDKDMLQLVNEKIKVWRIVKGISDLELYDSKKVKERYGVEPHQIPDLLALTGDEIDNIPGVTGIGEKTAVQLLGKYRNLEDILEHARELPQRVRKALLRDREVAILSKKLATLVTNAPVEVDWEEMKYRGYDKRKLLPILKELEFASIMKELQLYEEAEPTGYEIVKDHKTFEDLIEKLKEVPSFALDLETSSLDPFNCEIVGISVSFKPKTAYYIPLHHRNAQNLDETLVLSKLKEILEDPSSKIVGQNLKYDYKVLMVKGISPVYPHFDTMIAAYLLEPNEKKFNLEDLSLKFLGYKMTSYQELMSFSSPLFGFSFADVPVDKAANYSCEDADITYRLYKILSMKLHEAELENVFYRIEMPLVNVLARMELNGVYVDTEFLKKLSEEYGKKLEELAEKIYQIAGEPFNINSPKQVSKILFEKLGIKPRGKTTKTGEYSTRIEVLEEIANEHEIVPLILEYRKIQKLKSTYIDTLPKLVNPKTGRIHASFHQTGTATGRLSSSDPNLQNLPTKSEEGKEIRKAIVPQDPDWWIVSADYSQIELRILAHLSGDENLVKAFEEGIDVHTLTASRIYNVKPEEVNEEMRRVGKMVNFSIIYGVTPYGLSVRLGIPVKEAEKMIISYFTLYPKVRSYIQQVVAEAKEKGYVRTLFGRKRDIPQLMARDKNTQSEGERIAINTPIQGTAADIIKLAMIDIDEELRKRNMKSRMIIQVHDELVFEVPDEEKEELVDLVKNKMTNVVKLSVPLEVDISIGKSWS

Usually Km stands for the substrate concentration at which the rate is half of its maximum. Take `Cc1cn([C@H]2C[C@H](O)[C@@H](COP(=O)(O)OP(=O)(O)OP(=O)(O)O)O2)c(=O)[nH]c1=O` [dTTP]: the figures for the “Kcat RNA (dTTP)” value in experiment [1] (setting [4]) and in experiment [2] (setting [4]) were 14.5 s⁻¹ and 0.094 s⁻¹, respectively. In addition, the “kCAT Ratio (RNA/DNA)” value in experiment [1] (Table 40, 37 °C, RNA-DNA with dTTP over DNA-DNA with dGTP) came to 2.8; in experiment [2] (Table 40, 72 °C, RNA-DNA with dTTP over DNA-DNA with dGTP) it was 0.002; in experiment [3], 0.59. For the same compound, the “kCAT RNA-DNA” value worked out at 45 ± 18 s⁻¹ in experiment [1] (Table 40, (rA)250•(dT) template-primer, dTTP, 37 °C, mean ± SD) and 0.2 ± 0.04 s⁻¹ in experiment [2] (Table 40, (rA)250•(dT)40, dTTP, 72 °C, mean ± SD). Besides, the Km in experiment [1] (setting [5]) is 17 µM; in experiment [2] (setting [5]), 37 µM.

Source of the values: patent US20160108381A1, “DNA POLYMERASES AND MUTANTS THEREOF” (LIFE TECHNOLOGIES CORPORATION, priority 2001, published 2016).
